Like-named read-outs stand apart in the source and are kept apart here.
How the values were obtained:
PDE5A3 = PDE5A3 (Homo sapiens, UniProt O76074); test: In vitro PDE selectivity assay (SPA), PDE5A3; format: biochemical; conditions: hPDE5A3; read-out: PDE 5A3 (expressed as pIC50) (converted)
Description: (§1) Rat recombinant PDE10A (rPDE10A2) was expressed in Sf9 cells using a recombinant rPDE10A baculovirus construct. Cells were harvested after 48 h of infection and the rPDE10A protein was purified by metal chelate chromatography on Ni-sepharose 6FF. Tested compounds were dissolved and diluted in 100% DMSO to a concentration 100 fold of the final concentration in the assay. Compound dilutions (0.4 μl) were added in 384 well plates to 20 μl of incubation buffer (50 mM Tris pH 7.8, 8.3 mM MgCl2, 1.7 mM EGTA). 10 μl of rPDE10A enzyme in incubation buffer was added and the reaction was started by addition of 10 μl substrate to a final concentration of 60 nM cAMP and 0.008 μCi ^3H-cAMP. The reaction was incubated for 60 minutes at room temperature. After incubation, the reaction was stopped with 20 μl of stop solution consisting of 17.8 mg/ml PDE SPA (scintillation proximity assay) beads. After sedimentation of the beads during 30 minutes the radioactivity was measured in a Perkin Elmer Topcount scintillation counter and results were expressed as cpm. For blanc values the enzyme was omitted from the reaction and replaced by incubation buffer. Control values were obtained by addition of a final concentration of 1% DMSO instead of compound. The same assay principle is applied for the measurement of the affinity of the compound for other members of the PDE family with appropriate modifications in incubation buffer, substrate concentration, incubation time and stop solution. An overview of the different protocols is presented in table A. A best fit curve is fitted by a minimum sum of squares method to the plot of % of control value substracted with blanc value versus compound concentration and the half maximal inhibitory concentration (IC50) value is derived from this curve.
(§2) The compounds of the invention are generally selective for PDE10 compared to other PDEs and there are a few that also have affinity for PDE1B1, 4D3 and 5A3.

[1] = target: other members of the PDE family (Homo sapiens, UniProt O00408); test: In vitro PDE selectivity assay (SPA), other members of the PDE family (protocols in Table A); format: biochemical; conditions: hPDE2A; read-out: PDE 2A (expressed as pIC50) (converted)
Outline: (§3)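 Inhibition of each PDE isoform was measured by scintillation proximity assay with ³H-cyclic nucleotide substrate, using incubation buffer, substrate concentration, incubation time and stop solution adapted per isoform. Compounds were tested in dose-response against 1% DMSO controls and enzyme-free blanks. IC50 came from a least-squares fit of blank-subtracted % of control versus concentration.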

[2] = target: other members of the PDE family (Homo sapiens, UniProt Q13946); test: as above; format: biochemical; conditions: hPDE7A1; read-out: PDE 7A (expressed as pIC50) (converted)
Outline: as §3

[3] = target: other members of the PDE family (Homo sapiens, UniProt Q9HCR9); test: as above; format: biochemical; conditions: hPDE11A4; read-out: PDE 11A4 (expressed as pIC50) (converted)
Outline: as §3

[4] = target: other members of the PDE family (Homo sapiens, UniProt Q14432); test: as above; format: biochemical; conditions: hPDE3A; read-out: PDE 3A (expressed as pIC50) (converted)
Outline: as §3

[5] = target: other members of the PDE family (Homo sapiens, UniProt O76083); test: as above; format: biochemical; conditions: hPDE9A; read-out: PDE 9A (expressed as pIC50) (converted)
Outline: as §3

[6] = tested on: apomorphine-induced stereotypy in rats; test: Apomorphine-induced stereotypy in rats (APO); format: in vivo; conditions: Rattus norvegicus; dose at which 50% of the tested animals show the effect; ≧: active in 30% of the animals at the indicated dose; ≦: active in 60%
Description: Apomorphine (1.0 mg/kg, i.v.)-induced stereotypy (compulsive sniffing, licking, chewing) was scored every 5 min over the first hour after injection of apomorphine, following a 1 hour interval pre-treatment with the test compound. The score system was: (3) pronounced, (2) moderate, (1) slight, and (0) absent.

PDE10 = target: T1, PDE10 (Rattus norvegicus, UniProt Q9QYJ6); test: PDE10 occupancy ([3H]-MP-10, striatum); format: in vivo; conditions: for % occupancy at the highest dose tested: dose response sc, data between brackets; for ED50 / receptor occupancy at 10 mg/kg: rat, sc; for ED50: dose response, subcutaneous administration, read-out: PDE10 in vivo occupancy ED50 sc; for receptor occupancy at 10 mg/kg: single dose 10 mg/kg, subcutaneous, read-out: SD sc % occupancy at 10 mg/kg
T1 construct: from tissue; host or cells: rat brain sections, striatum (in vivo dosing, ex vivo autoradiography)
T1 sequence (Q9QYJ6 1-794): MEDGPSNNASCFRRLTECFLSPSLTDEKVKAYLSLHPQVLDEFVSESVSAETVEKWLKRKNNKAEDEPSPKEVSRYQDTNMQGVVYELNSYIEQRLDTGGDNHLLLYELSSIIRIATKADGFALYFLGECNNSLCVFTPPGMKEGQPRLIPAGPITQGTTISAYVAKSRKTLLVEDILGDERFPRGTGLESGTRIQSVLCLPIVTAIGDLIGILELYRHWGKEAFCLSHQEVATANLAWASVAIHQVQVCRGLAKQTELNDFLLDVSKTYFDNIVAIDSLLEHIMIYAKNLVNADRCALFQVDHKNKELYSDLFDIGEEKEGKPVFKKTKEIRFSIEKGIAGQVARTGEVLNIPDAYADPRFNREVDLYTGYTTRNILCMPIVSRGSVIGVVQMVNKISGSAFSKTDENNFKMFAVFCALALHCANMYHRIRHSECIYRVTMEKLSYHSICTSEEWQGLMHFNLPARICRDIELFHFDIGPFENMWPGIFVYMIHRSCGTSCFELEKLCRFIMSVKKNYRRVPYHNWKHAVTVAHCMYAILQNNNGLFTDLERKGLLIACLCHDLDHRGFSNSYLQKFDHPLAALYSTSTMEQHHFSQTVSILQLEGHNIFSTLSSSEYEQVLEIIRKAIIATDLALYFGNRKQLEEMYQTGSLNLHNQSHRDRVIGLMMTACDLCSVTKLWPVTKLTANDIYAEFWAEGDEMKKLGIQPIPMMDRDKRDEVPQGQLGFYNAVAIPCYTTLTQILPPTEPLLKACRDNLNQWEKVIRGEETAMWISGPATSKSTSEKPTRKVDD
Outline: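 Male Wistar rats (200 g) dosed s.c. or p.o.; occupancy measured 1 h post-dose. [^3H]-MP-10 (10 μCi/animal) given i.v. 30 min before sacrifice.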

PDE4D3 = PDE4D3 (Homo sapiens, UniProt Q08499); test: In vitro PDE selectivity assay (SPA), PDE4D3; format: biochemical; conditions: hPDE4D3; read-out: PDE 4D3 (expressed as pIC50) (converted)
Description: as §1, §2

[7] = target: T2, Rat recombinant PDE10A (rPDE10A2) (Rattus norvegicus, UniProt Q9QYJ6); test: In vitro assay PDE10A (SPA, 3H-cAMP); format: biochemical
T2 construct: inferred from the Ni metal chelate purification; made in house; host or cells: Sf9 insect cells (baculovirus)
T2 sequence (Q9QYJ6 1-794): T1 sequence (Q9QYJ6 1-794)
Outline: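 Scintillation proximity read-out (cpm) of 3H-cAMP hydrolysis after 60 min at room temperature, with enzyme-free blanks and 1% DMSO controls. Enzyme was Sf9-expressed, Ni-sepharose-purified rat rPDE10A2; substrate 60 nM cAMP with tracer, buffer Tris pH 7.8 containing MgCl2 and EGTA.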

[8] = Table 4 in vitro selectivity, read-out: PDE 10A2 (expressed as pIC50) (converted)
[9] = pIC50 corresponds to the −log IC50 expressed in mol/L, read-out: PDE10A2 pIC50 (converted)

Chain of PDE4D3 (Q08499 1-673 isoform Q08499-2): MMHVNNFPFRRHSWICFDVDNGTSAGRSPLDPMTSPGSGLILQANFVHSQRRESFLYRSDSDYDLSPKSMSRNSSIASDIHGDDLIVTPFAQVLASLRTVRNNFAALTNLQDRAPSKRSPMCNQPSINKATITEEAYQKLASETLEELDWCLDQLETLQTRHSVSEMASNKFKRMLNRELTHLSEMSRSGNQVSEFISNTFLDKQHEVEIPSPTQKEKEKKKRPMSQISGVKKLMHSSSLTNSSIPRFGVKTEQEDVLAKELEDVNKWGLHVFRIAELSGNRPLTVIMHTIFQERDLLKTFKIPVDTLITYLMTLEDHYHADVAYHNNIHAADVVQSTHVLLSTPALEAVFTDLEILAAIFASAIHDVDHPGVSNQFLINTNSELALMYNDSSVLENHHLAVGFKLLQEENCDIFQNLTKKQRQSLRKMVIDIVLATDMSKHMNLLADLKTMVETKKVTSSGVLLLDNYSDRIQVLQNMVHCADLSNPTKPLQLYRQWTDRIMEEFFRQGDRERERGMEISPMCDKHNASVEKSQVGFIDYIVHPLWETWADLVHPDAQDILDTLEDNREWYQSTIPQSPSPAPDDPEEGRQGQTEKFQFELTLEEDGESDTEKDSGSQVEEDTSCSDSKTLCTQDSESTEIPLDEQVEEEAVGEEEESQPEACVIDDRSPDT
Chain of other members of the PDE family (Homo sapiens, UniProt O00408) (O00408 whole entry, canonical isoform): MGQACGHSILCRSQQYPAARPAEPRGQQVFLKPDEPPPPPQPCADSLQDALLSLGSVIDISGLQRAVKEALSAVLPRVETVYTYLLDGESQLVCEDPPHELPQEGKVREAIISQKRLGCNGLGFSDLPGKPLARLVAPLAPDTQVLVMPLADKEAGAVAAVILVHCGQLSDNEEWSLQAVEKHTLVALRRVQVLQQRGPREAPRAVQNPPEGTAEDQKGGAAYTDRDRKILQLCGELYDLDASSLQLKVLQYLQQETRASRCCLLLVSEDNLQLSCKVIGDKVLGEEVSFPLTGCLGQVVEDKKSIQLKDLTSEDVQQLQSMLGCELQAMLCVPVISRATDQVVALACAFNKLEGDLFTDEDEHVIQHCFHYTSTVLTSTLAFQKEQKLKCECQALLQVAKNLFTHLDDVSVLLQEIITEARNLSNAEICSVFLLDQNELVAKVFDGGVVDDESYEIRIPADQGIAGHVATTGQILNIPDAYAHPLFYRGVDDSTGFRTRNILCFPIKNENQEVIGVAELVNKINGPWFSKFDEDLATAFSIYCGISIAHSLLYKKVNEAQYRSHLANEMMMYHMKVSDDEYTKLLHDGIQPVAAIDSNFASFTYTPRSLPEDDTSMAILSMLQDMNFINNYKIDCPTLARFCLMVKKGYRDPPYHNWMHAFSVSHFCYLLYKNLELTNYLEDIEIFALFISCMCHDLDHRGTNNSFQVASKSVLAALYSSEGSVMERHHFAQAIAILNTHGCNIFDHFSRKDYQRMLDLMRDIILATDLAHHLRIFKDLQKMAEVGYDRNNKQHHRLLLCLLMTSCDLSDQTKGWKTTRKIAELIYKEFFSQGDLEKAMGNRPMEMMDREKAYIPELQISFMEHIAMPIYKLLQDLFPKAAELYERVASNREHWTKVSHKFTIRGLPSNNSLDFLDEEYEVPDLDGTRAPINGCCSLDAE
Chain of other members of the PDE family (Homo sapiens, UniProt Q14432) (Q14432 whole entry): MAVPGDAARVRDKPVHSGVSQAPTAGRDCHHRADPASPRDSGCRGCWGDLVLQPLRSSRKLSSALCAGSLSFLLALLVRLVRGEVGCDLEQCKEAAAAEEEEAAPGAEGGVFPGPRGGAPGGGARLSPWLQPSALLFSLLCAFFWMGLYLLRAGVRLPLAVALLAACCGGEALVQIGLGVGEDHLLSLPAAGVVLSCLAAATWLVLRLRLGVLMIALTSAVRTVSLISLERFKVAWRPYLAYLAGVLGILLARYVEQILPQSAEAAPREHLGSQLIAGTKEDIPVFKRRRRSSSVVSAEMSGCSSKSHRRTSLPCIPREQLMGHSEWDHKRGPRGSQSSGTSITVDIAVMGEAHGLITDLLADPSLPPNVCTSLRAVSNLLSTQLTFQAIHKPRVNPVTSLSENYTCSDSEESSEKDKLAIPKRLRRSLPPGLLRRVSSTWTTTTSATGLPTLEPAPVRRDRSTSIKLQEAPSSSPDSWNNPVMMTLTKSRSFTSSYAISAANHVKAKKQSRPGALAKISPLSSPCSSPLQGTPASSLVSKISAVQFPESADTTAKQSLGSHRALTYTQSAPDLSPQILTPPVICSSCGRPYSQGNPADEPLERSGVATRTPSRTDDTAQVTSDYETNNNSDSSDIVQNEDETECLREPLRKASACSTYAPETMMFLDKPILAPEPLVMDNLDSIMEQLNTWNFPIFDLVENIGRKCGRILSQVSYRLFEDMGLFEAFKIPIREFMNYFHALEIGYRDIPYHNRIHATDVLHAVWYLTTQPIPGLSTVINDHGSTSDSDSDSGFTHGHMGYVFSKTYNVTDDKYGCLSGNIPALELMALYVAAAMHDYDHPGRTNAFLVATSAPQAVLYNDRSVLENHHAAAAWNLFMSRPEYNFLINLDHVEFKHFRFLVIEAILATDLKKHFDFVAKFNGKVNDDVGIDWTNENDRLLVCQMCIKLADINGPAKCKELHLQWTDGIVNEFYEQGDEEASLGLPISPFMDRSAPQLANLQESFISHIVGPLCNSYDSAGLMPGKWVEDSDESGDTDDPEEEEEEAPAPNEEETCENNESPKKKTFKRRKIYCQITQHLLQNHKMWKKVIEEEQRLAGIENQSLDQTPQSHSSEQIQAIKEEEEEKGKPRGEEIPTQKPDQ
Chain of other members of the PDE family (Homo sapiens, UniProt Q9HCR9) (Q9HCR9 whole entry): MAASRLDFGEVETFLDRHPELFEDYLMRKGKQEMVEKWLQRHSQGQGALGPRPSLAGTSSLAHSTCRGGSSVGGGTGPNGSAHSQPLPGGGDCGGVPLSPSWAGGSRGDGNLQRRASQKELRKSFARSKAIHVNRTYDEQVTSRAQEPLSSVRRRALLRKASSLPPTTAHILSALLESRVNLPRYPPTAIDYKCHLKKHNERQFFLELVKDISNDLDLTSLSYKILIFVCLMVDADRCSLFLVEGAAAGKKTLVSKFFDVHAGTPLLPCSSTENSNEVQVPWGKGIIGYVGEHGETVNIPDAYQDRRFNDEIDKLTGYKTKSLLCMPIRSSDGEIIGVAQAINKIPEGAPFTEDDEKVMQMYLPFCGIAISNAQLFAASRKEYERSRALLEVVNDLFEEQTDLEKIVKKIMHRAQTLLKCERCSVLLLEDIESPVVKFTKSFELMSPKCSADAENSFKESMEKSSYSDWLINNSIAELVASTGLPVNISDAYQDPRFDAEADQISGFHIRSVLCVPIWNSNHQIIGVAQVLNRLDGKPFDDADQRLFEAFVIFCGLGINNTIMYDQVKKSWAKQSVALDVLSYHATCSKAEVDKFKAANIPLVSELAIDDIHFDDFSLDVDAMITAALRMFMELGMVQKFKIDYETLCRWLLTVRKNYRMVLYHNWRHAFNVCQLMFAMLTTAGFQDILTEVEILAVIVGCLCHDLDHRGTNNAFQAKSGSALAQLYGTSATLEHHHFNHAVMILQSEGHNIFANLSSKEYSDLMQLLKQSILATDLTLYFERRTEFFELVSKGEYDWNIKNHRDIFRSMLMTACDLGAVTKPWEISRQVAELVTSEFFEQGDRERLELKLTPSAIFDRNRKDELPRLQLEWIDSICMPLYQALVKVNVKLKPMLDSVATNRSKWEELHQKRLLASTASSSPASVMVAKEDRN
Chain of other members of the PDE family (Homo sapiens, UniProt Q13946) (Q13946 whole entry): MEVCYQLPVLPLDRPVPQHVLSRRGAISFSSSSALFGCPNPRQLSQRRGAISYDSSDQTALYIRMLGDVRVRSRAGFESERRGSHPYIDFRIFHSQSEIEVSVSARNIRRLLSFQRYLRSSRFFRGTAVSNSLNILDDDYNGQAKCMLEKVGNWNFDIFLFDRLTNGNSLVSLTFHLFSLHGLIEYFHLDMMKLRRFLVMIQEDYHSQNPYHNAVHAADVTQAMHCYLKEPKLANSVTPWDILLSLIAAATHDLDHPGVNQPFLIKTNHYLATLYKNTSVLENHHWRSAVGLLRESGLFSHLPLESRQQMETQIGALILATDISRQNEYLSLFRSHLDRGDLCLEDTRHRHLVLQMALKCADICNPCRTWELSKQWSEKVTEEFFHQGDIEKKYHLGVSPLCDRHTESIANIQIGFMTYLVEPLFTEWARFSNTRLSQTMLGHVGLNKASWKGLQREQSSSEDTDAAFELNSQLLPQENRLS
Chain of other members of the PDE family (Homo sapiens, UniProt O76083) (O76083 whole entry): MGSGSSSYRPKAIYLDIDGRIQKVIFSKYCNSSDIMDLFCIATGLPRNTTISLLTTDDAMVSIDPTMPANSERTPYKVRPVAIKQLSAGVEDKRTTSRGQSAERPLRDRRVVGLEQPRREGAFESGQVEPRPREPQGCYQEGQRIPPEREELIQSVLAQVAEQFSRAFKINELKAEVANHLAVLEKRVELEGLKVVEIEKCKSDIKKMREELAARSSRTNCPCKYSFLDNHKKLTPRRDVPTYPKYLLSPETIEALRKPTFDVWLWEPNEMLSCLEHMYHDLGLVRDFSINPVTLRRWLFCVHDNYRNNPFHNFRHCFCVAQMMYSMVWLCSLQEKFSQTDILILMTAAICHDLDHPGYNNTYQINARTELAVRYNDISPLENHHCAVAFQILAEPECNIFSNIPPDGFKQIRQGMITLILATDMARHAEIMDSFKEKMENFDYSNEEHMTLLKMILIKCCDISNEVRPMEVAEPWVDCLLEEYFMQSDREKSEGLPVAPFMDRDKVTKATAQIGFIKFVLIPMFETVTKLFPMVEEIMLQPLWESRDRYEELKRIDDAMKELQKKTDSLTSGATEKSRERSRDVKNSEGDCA

Row | Structure (SMILES) | IC50 (PDE5A3) | IC50 [1] | IC50 [2] | IC50 [3] | IC50 [4] | IC50 [5] | ED50 [6] | % occupancy at the highest dose tested (PDE10) | ED50 (PDE10) | IC50 (PDE4D3) | IC50 [7, 8] | IC50 [7, 9] | receptor occupancy at 10 mg/kg (PDE10)
1 | Cc1nc2c(N3CCOCC3)ccnn2c1-c1ccc(N2CCNCC2)nc1 [compound 30, 2-methyl-8-(4-morpholinyl)-3-[6-(1-piperazinyl)-3-pyridinyl]-imidazo[1,2-b]pyridazine] | > 10 µM | > 10 µM | > 10 µM | > 10 µM | > 10 µM | > 10 µM | 7.1 mg/kg | 6% | > 10 mg/kg | > 10 µM | 0.123 µM | 0.123 µM | –
2 | Cc1nc2c(N3CCOCC3)ccnn2c1-c1cnn(CC(C)C)c1 [compound 35, 2-methyl-3-[1-(2-methylpropyl)-1H-pyrazol-4-yl]-8-(4-morpholinyl)-imidazo[1,2-b]pyridazine] | > 10 µM | > 10 µM | > 10 µM | > 10 µM | 7.41 µM | > 10 µM | 5 mg/kg | – | – | > 10 µM | 0.038 µM | 0.038 µM | 67%
3 | COC(C)(C)Cn1cc(-c2c(C)nc3c(N4CCOCC4)ccnn23)cn1 [compound 37, 3-[1-(2-methoxy-2-methylpropyl)-1H-pyrazol-4-yl]-2-methyl-8-(4-morpholinyl)-imidazo[1,2-b]pyridazine] | 6.03 µM | 53.7 µM | 45.7 µM | 39.8 µM | 11 µM | > 100 µM | 1.5 mg/kg | – | 2.2 mg/kg | 30.9 µM | 0.0501 µM | 0.0501 µM | 67%
4 | Cc1nc2c(-c3ccncc3)ccnn2c1-c1cnn(CC(C)C)c1 [compound 124, 2-methyl-3-[1-(2-methylpropyl)-1H-pyrazol-4-yl]-8-(4-pyridinyl)-imidazo[1,2-b]pyridazine] | 1.95 µM | 8.71 µM | 5.37 µM | 5.37 µM | 6.92 µM | > 10 µM | 1.2 mg/kg | – | 3 mg/kg | 7.41 µM | 0.0224 µM | 0.0224 µM | –
5 | COCCn1cc(-c2c(C)nc3c(N4CCOCC4)cc(C4CC4)nn23)cn1 [compound 125, 6-cyclopropyl-3-[1-(2-methoxyethyl)-1H-pyrazol-4-yl]-2-methyl-8-(4-morpholinyl)-imidazo[1,2-b]pyridazine] | 1.26 µM | 8.51 µM | > 10 µM | 4.47 µM | > 10 µM | > 10 µM | ≥ 2.5 mg/kg | 42% | > 10 mg/kg | 2.09 µM | 0.0832 µM | 0.0832 µM | –
6 | CCc1nc2c(N3CCOCC3)ccnn2c1-c1cnn(CCOC)c1 [compound 127, 2-ethyl-3-[1-(2-methoxyethyl)-1H-pyrazol-4-yl]-8-(4-morpholinyl)-imidazo[1,2-b]pyridazine] | 4.68 µM | > 10 µM | > 10 µM | > 10 µM | > 10 µM | > 10 µM | 2 mg/kg | – | – | > 10 µM | 0.112 µM | 0.112 µM | 4%
7 | CO[C@@H](C)Cn1cc(-c2c(C)nc3c(N4CCOCC4)ccnn23)cn1 [compound 131, 3-[1-[(2S)-2-methoxypropyl]-1H-pyrazol-4-yl]-2-methyl-8-(4-morpholinyl)-imidazo[1,2-b]pyridazine] | 8.51 µM | > 10 µM | > 10 µM | > 10 µM | > 10 µM | > 10 µM | 3.1 mg/kg | – | – | > 10 µM | 0.0347 µM | 0.0347 µM | 59%
8 | COCCn1cc(-c2c(C3CC3)nc3c(-c4ccncc4)ccnn23)cn1 [compound 142, 2-cyclopropyl-3-[1-(2-methoxyethyl)-1H-pyrazol-4-yl]-8-(4-pyridinyl)-imidazo[1,2-b]pyridazine] | 1.15 µM | 5.5 µM | 5.01 µM | 1.82 µM | 5.13 µM | > 10 µM | 5 mg/kg | – | – | 2.82 µM | 0.0145 µM | 0.0145 µM | 78%
9 | COCCn1cc(-c2c(C)nc3c(-c4ccncc4)cc(Cl)nn23)cn1 [compound 147, 6-chloro-3-[1-(2-methoxyethyl)-1H-pyrazol-4-yl]-2-methyl-8-(4-pyridinyl)-imidazo[1,2-b]pyridazine] | 1.17 µM | > 10 µM | 3.55 µM | 3.8 µM | > 10 µM | > 10 µM | 5 mg/kg | – | – | 3.8 µM | 0.0676 µM | 0.0676 µM | 22%
10 | CC(C)Cn1cc(-c2c(C3CC3)nc3c(-c4ccncc4)ccnn23)cn1 [compound 148, 2-cyclopropyl-3-[1-(2-methylpropyl)-1H-pyrazol-4-yl]-8-(4-pyridinyl)-imidazo[1,2-b]pyridazine] | 1.23 µM | 4.37 µM | 2.88 µM | 1.91 µM | 3.16 µM | > 10 µM | 5 mg/kg | – | – | 2.57 µM | 0.0251 µM | 0.0251 µM | 66%

Source: patent US20120220581A1, “IMIDAZO[1,2-b]PYRIDAZINE DERIVATIVES AND THEIR USE AS PDE10 INHIBITORS” (Janssen-Cilag, S.A., priority 2009, published 2012)
